Test results from publication PMC3325374 (Journal of Medicinal Chemistry, 2012).

System: MDR1-MDCK cell monolayers
Assay: MDR1-MDCK monolayer permeability assay
Format: in vitro ADME
Conditions: judged from MDR1-MDCK efflux ratio

With `N#CCNC(=O)[C@H](Cc1c[nH]cn1)NC(=O)OCc1ccccc1` [Compound 10] the “P-gp mediated efflux (in words)” value was “subject to P-gp mediated efflux”.
